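In this assay, cells in 96-well plates receive the compound at five concentrations for 48 hours. Endpoints are linearly interpolated between the surrounding concentrations. The concentration for 50% growth inhibition is given as GI50. TGI denotes the concentration required for complete inhibition of growth.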
What was measured:
Assay in all cases: NCI anticancer screen, dose series, 48 h
A549 NSCLC = tested on: A549 NSCLC
BT-549 breast = tested on: BT-549 breast
CCRF-CEM leukemia = tested on: CCRF-CEM leukemia
HL-60(TB) leukemia = tested on: HL-60(TB) leukemia
IGROV1 ovarian = tested on: IGROV1 ovarian
NCI/ADR-RES ovarian = tested on: NCI/ADR-RES ovarian
OVCAR-3 ovarian = tested on: OVCAR-3 ovarian
UO-31 renal = tested on: UO-31 renal
OVCAR-4 ovarian = tested on: OVCAR-4 ovarian
RPMI-8226 leukemia = tested on: RPMI-8226 leukemia

| SMILES | GI50 (A549 NSCLC) | TGI (A549 NSCLC) | TGI (BT-549 breast) | GI50 (CCRF-CEM leukemia) | TGI (CCRF-CEM leukemia) | GI50 (HL-60(TB) leukemia) | TGI (HL-60(TB) leukemia) | GI50 (IGROV1 ovarian) | TGI (IGROV1 ovarian) | GI50 (NCI/ADR-RES ovarian) | TGI (NCI/ADR-RES ovarian) | GI50 (OVCAR-3 ovarian) | TGI (OVCAR-3 ovarian) | TGI (UO-31 renal) | TGI (OVCAR-4 ovarian) | TGI (RPMI-8226 leukemia) | GI50 (BT-549 breast) | GI50 (OVCAR-4 ovarian) | GI50 (RPMI-8226 leukemia) | GI50 (UO-31 renal) |
| --- | --- | --- | --- | --- | --- | --- | --- | --- | --- | --- | --- | --- | --- | --- | --- | --- | --- | --- | --- | --- |
| CC(C)CC(=O)O[C@H]1C(=O)O[C@@H]2C[C@H]3[C@H](C)C(=O)C(O[C@@H]4O[C@H](CO)[C@@H](O)[C@H](O)[C@H]4O)=C[C@]3(C)[C@H]3[C@@H](O)[C@H](O)[C@]4(C(=O)O)OC[C@]32[C@@H]14 | 42.1 µM | > 100 µM | > 100 µM | 24.7 µM | 83.6 µM | 41.3 µM | > 100 µM | 35.4 µM | > 100 µM | > 100 µM | > 100 µM | 36.4 µM | > 100 µM | > 100 µM |  |  |  |  |  |  |
| O=C(/C=C/c1c[nH]c2ccccc12)c1ccccc1O |  | 24.5 µM | 28.3 µM |  |  |  | > 100 µM |  | 36.4 µM |  |  |  | 20.3 µM | 17.6 µM | 27 µM | 62.1 µM |  |  |  |  |
| O=C(N=Nc1c(O)[nH]c2c(Cl)cc(Cl)cc12)C(=O)Nc1cccc(C(F)(F)F)c1 |  | > 100 µM | > 100 µM |  | > 100 µM |  | > 100 µM |  | > 100 µM |  | > 100 µM |  | > 100 µM | > 100 µM | > 100 µM |  |  |  |  |  |
| CCN(CC)CCCC(C)Nc1ccnc2cc(OC)ccc12 (configuration not stated) | 18.3 µM | 35.5 µM | 37 µM | 18.1 µM | 42.3 µM |  |  | 27.3 µM | 79.3 µM | 91.1 µM | > 100 µM | 23.7 µM | 67.5 µM | 34.6 µM | 62.2 µM | 42 µM | 18.7 µM | 22.6 µM | 18.6 µM | 16.4 µM |
| C=C(CN1CCc2ccccc2C1)c1ccc(C(=O)Nc2cccc(N)c2)cc1 | 20.5 µM | 61.2 µM | 34.4 µM | 16.4 µM | > 100 µM |  |  | 16 µM | 47.2 µM | 21.7 µM | 76.8 µM | 13.6 µM | 35.3 µM | 59.7 µM |  | > 100 µM | 16.2 µM |  | 16.3 µM | 16 µM |
| C=CN(C(=O)N1CCN(c2cc3c(cc2F)c(=O)c(C(=O)O)cn3C2CC2)CC1)c1nc(-c2ccc(C)cc2)cs1 | 3.17 µM | > 100 µM | 2.11 µM | 0.438 µM | > 100 µM |  |  | 3.42 µM | > 100 µM | 2.67 µM | 7.24 µM | 3.83 µM | > 100 µM |  | > 100 µM | > 100 µM | 0.306 µM | 3.56 µM | 0.53 µM |  |
| CCc1ccc2cc3c(ccc4ccccc43)c3c2c1CC3 | > 100 µM | > 100 µM | > 100 µM | > 100 µM | > 100 µM |  |  | > 100 µM | > 100 µM | > 100 µM | > 100 µM | > 100 µM | > 100 µM | > 100 µM | > 100 µM | > 100 µM | > 100 µM | > 100 µM | > 100 µM | > 100 µM |
| CN(C)c1ccc(-c2cc(-c3cccc(NS(C)(=O)=O)c3)nc(N)c2C#N)cc1 | 0.0537 µM | > 56.2 µM | 4.65 µM | 0.0379 µM | > 100 µM | 0.0362 µM | 0.411 µM | 0.0624 µM | 30.8 µM |  |  | 0.0226 µM | 0.0568 µM | 45 µM | 53.8 µM | 2.55 µM | 0.0645 µM | 0.522 µM | 0.0416 µM | 0.0562 µM |
